Several values for one entry are separate records, joined by “and”; a condition that tells them apart may be missing. Identical values can stand only once.
What was measured:
[1] = Release experiments with 5(6)-carboxyfluorescein-loaded large unilamellar vesicles (LUVET100), spontaneous and vortex-triggered; type: physicochemical; conditions: for Release at RT after 60 s vortex / Release 37° C. after 60 s vortex: mechanically induced release, 60 s vortexing; for Release at RT after 60 s vortex / Release at RT after 7 days: 22° C. (RT); for Release at RT after 7 days: spontaneous release of 5(6)-carboxyfluorescein; for release at 37° C. without vortexing: without vortexing/shaking
Excerpt: FIG. 8 Release experiments using 5(6)-carboxyfluorescein-loaded large unilamellar vesicles comprising 1,3-diheptadecanamidopropan-2-yl (2-(trimethylammonio) ethyl) phosphate (4) obtained via extrusion through a 100 nm track-edged filter membrane (LUVET100). Triggered release was induced by shaking the samples for a specific amount of time on a vortex-shaker.
Previously the inventors reported the 5(6)-carboxyfluorescein release from vesicles containing 1,3-palmitoylamido-1,3-deoxy-sn-glycero-2-phosphatidylcholine (2) (Holme et al., Nat. Nanotechnol. 2012, 7, 536-543). […] Increasing the Tm promises improved release properties. […] This leads to a lower leakage of the vesicles at 22° C. (room temperature) as well as 37° C. (average human body temperature) (FIG. 8). A prolongation if the acyl chain to the artificial C18 phospholipid 1,3-stearoylamido-1,3-deoxy-sn-glycero-2-phosphatidylcholine leads to an increased Tm of 52° C., but this phospholipid forms almost no liposomes anymore.
Each sample was treated with Triton X-100 to induce a full release of 5(6)-carboxy fluorescein.
Large unilamellar vesicles with a diameter of 100 nm (LUVET100) of the 1,3-diheptadecanamidopropan-2-yl (2-(trimethylammonio) ethyl) phosphate (4) were prepared following the extrusion protocol: in a 25 ml round bottom flask, 10 mg of the lipid was dissolved in CH2Cl2. After evaporation of the organic solvent, the film was further dried under high vacuum (40 mbar) overnight. Then the film was hydrated with the internal buffer for 30 min (1 ml, 50 mM 5(6)-carboxyfluorescein, 10 mM HEPES buffer (AppliChem), 10 mM NaCl dissolved in pure water, pH 7.4). Now at least 5 freeze-thaw cycles (liquid N2 to 65° C.) were carried out before the suspension was extruded 11 times using a Mini Extruder (Avanti Polar Lipids, USA) using track-edged filters with a mesh size of 100 nm (Whatman, USA). The external buffer was then exchanged on a size exclusion column (1.5×20 cm Sephadex G-50 column) in external buffer (107 mM NaCl dissolved in ultrapure water, 10 mM HEPES, pH 7.4).

[2] = Small-angle neutron scattering (SANS) of liposomes as a function of temperature; type: physicochemical; design: key to Eccentricity: ε = c/R axis ratio; <1 oblate, 1 spherical, >1 prolate
Excerpt: In order to determine the structural parameters, including the bilayer thickness of the selected liposomal formulations, a suitable model for data fitting has to be identified. […] The structure factor was fitted using the sticky hard sphere model (Baxter et al., The Journal of Chemical Physics 1968, 49 (6), 2770-2774; Mays, Langmuir 1989, 5, 422-428). In order to adjust the form factor to the overall shape of the liposomes, an ellipsoidal shell model with a homogeneous cross-section (Guinier, Annales de Physique, 1939; pp 161-237) was applied. The elliptical shell model is defined by three orthogonal axes with lengths a=R, b=R and c=εR, along with eccentricity ε>0, (ε<1: oblate, ε=1: spherical, ε>1: prolate). The model also accounts for variations in bilayer thickness and liposome size. As the scattering data of the Pad-PC-Pad liposomes at the temperature of 35° C. could not be approximated satisfactorily by means of the ellipsoidal shell, the inventors included disks with a homogeneous cross-section—an approach motivated by the cryo-TEM results. Together with the experimental data of the Pad-PC-Pad liposomes at three selected temperatures, the obtained fits are represented in FIG. 23.
The inventors recognised that the inhomogeneity of the liposomal formulations, except for Pad-PC-Pad, concerning the shape and size of the artificial lipids in this study only allows for the reasonable fitting of the q-range, which corresponds to bilayer thickness. For this purpose, the inventors applied an extended Guinier law (Hjelm et al., The Journal of Physical Chemistry B 2000, 104 (2), 197-211; Fratzl, Journal of Statistical Physics 1994, 77 (1-2), 125-143), which yields the thickness of the bilayer. To account for possible multi-lamellarity, the inventors included a para-crystalline stacking model (Schwartz et al., Biophysical journal 1975, 15 (12), 1201-1233; FruÈhwirth et al., Journal of Applied Crystallography 2004, 37 (5), 703-710) as a structure factor.
SANS measurements were performed at the SANS-I beamline at the Swiss Spallation Neutron Source SINQ facility (Paul Scherrer Institute, Villigen, Switzerland). The samples were loaded into 2 mm-path length, boron-free quartz glass cells and mounted in a temperature-controlled holder. This system allows for controlling the temperature of the specimen with an accuracy better than 1 K. The liposomal suspensions were measured between 22 and 42° C. in 3 to 4 K steps. Subsequently, the suspensions were cooled down to room temperature (22° C.) and measured again. Three detector distances, i.e. 1.6, 6.0 and 18.0 m, were used to collect data over the range of scattering vectors 0.01 nm^−1<q<10 nm^−1 at the neutron wavelengths (A) […]. Data were collected with a two-dimensional ^3He-detector with an array of 128×128 pixels and reduced to one-dimensional I(q) scattering curves, thus radially averaging the two-dimensional images. The data were corrected for transmission, background scattering and detector efficiency according to a standard procedure using the BerSANS software package (Keiderling, Applied Physics A 2002, 74 (1), s1455-s1457; Strunz et al., Journal of Applied Crystallography 2000, 33 (3 Part 1), 829-833).
The SANS data were analysed using SASfit software (Breßler et al., Journal of Applied Crystallography 2015, 48 (5), 1587-1598) and corresponding models. A Pad-PC-Pad sample was fitted over the entire measured q-range, whereas we restricted the fit for the other samples to the q-range, which corresponds to lipid bilayer thickness. For Pad-PC-Pad, the inventors used an ellipsoidal shell model with a homogeneous cross-section (Guinier, Annales de Physique, 1939; pp 161-237) and size distributions in terms of both thickness and radius. […]

[3] = 22 ° C. (after cooling down to room temperature)
[4] = 35 ° C., contribution for disks accounted for

CCCCCCCCCCCCCCCCC(=O)NCC(CNC(=O)CCCCCCCCCCCCCCCC)OP(=O)([O-])OCC[N+](C)(C)C [Rad-PC-Rad, 1,3-diheptadecanamidopropan-2-yl (2-(trimethylammonio)ethyl) phosphate]
Release at 37° C. after 2 h [1]: 6%
Release at RT after 60 s vortex [1]: 24% and 23.8%
Release 37° C. after 60 s vortex [1]: 34%
Release at RT after 7 days [1]: 9% and 9.4%
most probable bilayer thickness ([2]; 22 ° C.): 4.55 nm
most probable bilayer thickness [2, 3]: 4.45 nm
most probable bilayer thickness ([2]; 25 ° C.): 4.57 nm
most probable bilayer thickness ([2]; 28 ° C.): 4.55 nm
most probable bilayer thickness ([2]; 32 ° C.): 4.51 nm
most probable bilayer thickness ([2]; 35 ° C.): 4.45 nm
most probable bilayer thickness ([2]; 39 ° C.): 4.35 nm
most probable bilayer thickness ([2]; 42 ° C.): 4.4 nm
thermal stability of liposomes ([2]; temperature range between 22 and 42° C.): thermally stable up to 42 °C

CCCCCCCCCCCCCCCC(=O)OC[C@H](COP(=O)([O-])OCC[N+](C)(C)C)OC(=O)CCCCCCCCCCCCCCC [DPPC, 1,2-dipalmitoyl-sn-glycero-3-phosphocholine]
Release at 37° C. after 2 h [1]: 12.2%
Release at RT after 60 s vortex [1]: 1.1%
Release 37° C. after 60 s vortex [1]: 17.9%
Release at RT after 7 days [1]: 4.5%
most probable bilayer thickness ([2]; 22 ° C.): 4.59 nm
most probable bilayer thickness [2, 3]: 4.67 nm
most probable bilayer thickness ([2]; 25 ° C.): 4.58 nm
most probable bilayer thickness ([2]; 28 ° C.): 4.62 nm
most probable bilayer thickness ([2]; 32 ° C.): 4.61 nm
most probable bilayer thickness ([2]; 35 ° C.): 4.61 nm
most probable bilayer thickness ([2]; 39 ° C.): 4.65 nm
most probable bilayer thickness ([2]; 42 ° C.): 4.65 nm

CCCCCCCCCCCCCCCC(=O)NCC(CNC(=O)CCCCCCCCCCCCCCC)OP(=O)([O-])OCC[N+](C)(C)C [Pad-PC-Pad, 1,3-palmitoylamido-1,3-deoxy-sn-glycero-2-phosphatidylcholine]
Release at 37° C. after 2 h [1]: 100%
release at 37° C. without vortexing [1]: 100%
release at 37° C. without vortexing ([1]; listed as 1,3-palmitoylamido-1,3-deoxy-sn-glycero-2-phosphatidylcholine): immediate full release
Release at RT after 60 s vortex [1]: 43.4%
Release 37° C. after 60 s vortex [1]: 100%
Release at RT after 7 days [1]: 15.5%
Bilayer thickness ([2]; 22 ° C.): 3.46 ± 1.07 nm
Eccentricity ([2]; 22 ° C.): 0.35
Radius ([2]; 22 ° C.): 69.96 ± 19.05 nm
Bilayer thickness [2, 3]: 4.18 ± 0.70 nm
Eccentricity [2, 3]: 0.04
Radius [2, 3]: 70.41 ± 31.77 nm
Bilayer thickness ([2]; 25 ° C.): 3.38 ± 0.94 nm
Eccentricity ([2]; 25 ° C.): 0.35
Radius ([2]; 25 ° C.): 66.22 ± 21.15 nm
Bilayer thickness ([2]; 28 ° C.): 3.34 ± 0.91 nm
Eccentricity ([2]; 28 ° C.): 0.32
Radius ([2]; 28 ° C.): 69.96 ± 16.31 nm
Bilayer thickness ([2]; 32 ° C.): 3.37 ± 0.89 nm
Eccentricity ([2]; 32 ° C.): 0.31
Radius ([2]; 32 ° C.): 69.90 ± 15.93 nm
Bilayer thickness [2, 4]: 3.42 ± 0.88 nm
Eccentricity [2, 4]: 0.88
Radius [2, 4]: 64.91 nm
Bilayer thickness ([2]; 39 ° C.): 3.37 ± 0.76 nm
Eccentricity ([2]; 39 ° C.): 0.04
Radius ([2]; 39 ° C.): 71.96 ± 5.40 nm
Bilayer thickness ([2]; 42 ° C.): 3.57 ± 0.74 nm
Eccentricity ([2]; 42 ° C.): 0.05
Radius ([2]; 42 ° C.): 71.35 ± 5.01 nm
increase in bilayer thickness after the heating cycle ([2]; temperature cycle to 42° C. including cooling to room temperature): 21%

Source: patent US11904051B2, “Shear stress sensitive liposomes” (Universität Basel, priority 2018, dated 2024)
